Source: ChEMBL document CHEMBL3124779, “Discovery of ABT-267, a pan-genotypic inhibitor of HCV NS5A” (J Med Chem, 2014)

Experiments:
Hepatitis C virus [1] = assay: Antiviral activity against HCV1b Con1 infected in human HuH7 cells assessed as inhibition of viral replication after 4 days by luciferase reporter gene assay in presence of 40% human plasma; assay type: functional, organism-based, Hepacivirus hominis; conditions: isolate Con1, Huh-7, Plasma, 96 h
Hepatitis C virus [2] = assay: Antiviral activity against HCV1a H77 infected in human HuH7 cells assessed as inhibition of viral replication after 4 days by luciferase reporter gene assay in presence of 40% human plasma; assay type: functional, organism-based, Hepacivirus hominis; conditions: genotype 1a H77, Huh-7, Plasma, 96 h
Hepatitis C virus [3] = assay: Antiviral activity against HCV1b Con1 infected in human HuH7 cells assessed as inhibition of viral replication after 4 days by luciferase reporter gene assay; assay type: functional, organism-based, Hepacivirus hominis; conditions: isolate Con1, Huh-7, 96 h
Hepatitis C virus [4] = assay: Ratio of EC50 for HCV1b Con1 infected in human HuH7 cells in presence of 40% human plasma to EC50 for HCV1b Con1 infected in human HuH7 cells in absence of 40% human plasma; assay type: functional, Hepacivirus hominis, isolate Con1, Huh-7
Hepatitis C virus [5] = assay: Ratio of EC50 for HCV1a H77 infected in human HuH7 cells in presence of 40% human plasma to EC50 for HCV1a H77 infected in human HuH7 cells in absence of 40% human plasma; assay type: functional, Hepacivirus hominis, genotype 1a H77, Huh-7
Hepatitis C virus [6] = assay: Antiviral activity against HCV1a H77 infected in human HuH7 cells assessed as inhibition of viral replication after 4 days by luciferase reporter gene assay; assay type: functional, organism-based, Hepacivirus hominis; conditions: genotype 1a H77, Huh-7, 96 h

| Compound | EC50 (Hepatitis C virus [1]) | EC50 (Hepatitis C virus [2]) | EC50 (Hepatitis C virus [3]) | EC50 (Hepatitis C virus [6]) | Ratio EC50 (Hepatitis C virus [4]) | Ratio EC50 (Hepatitis C virus [5]) |
| --- | --- | --- | --- | --- | --- | --- |
| CC[C@H](NC(=O)OC)C(=O)N1CCC[C@H]1C(=O)Nc1ccc([C@@H]2CC[C@@H](c3ccc(NC(=O)[C@@H]4CCCN4C(=O)[C@H](CC)NC(=O)OC)cc3)N2c2ccc(F)cc2)cc1 | 1 nM | 34 nM | 0.14 nM | 4.6 nM | 7 | 7 |
| COC(=O)N[C@H](C(=O)N1CCC[C@H]1C(=O)Nc1ccc([C@@H]2CC[C@@H](c3ccc(NC(=O)[C@@H]4CCCN4C(=O)[C@@H](NC(=O)OC)C(C)(C)C)cc3)N2c2ccc(C(F)(F)F)cc2)cc1)C(C)(C)C | 0.211 nM | 4.14 nM | 0.0088 nM | 0.099 nM | 24 | 42 |
| COC(=O)N[C@H](C(=O)N1CCC[C@H]1C(=O)Nc1ccc([C@H]2CC[C@H](c3ccc(NC(=O)[C@@H]4CCCN4C(=O)[C@@H](NC(=O)OC)C(C)(C)C)cc3)N2c2ccc(C(F)(F)F)cc2)cc1)C(C)(C)C | 0.184 nM | 14.3 nM | 0.011 nM | 0.829 nM | 17 | 17 |
| COC(=O)N[C@H](C(=O)N1CCC[C@H]1C(=O)Nc1ccc([C@H]2CC[C@H](c3ccc(NC(=O)[C@@H]4CCCN4C(=O)[C@@H](NC(=O)OC)C(C)(C)C)cc3)N2c2ccc(S(C)(=O)=O)cc2)cc1)C(C)(C)C | 3.42 nM | 27.6 nM | 0.226 nM | 0.659 nM | 15 | 42 |
| COC(=O)N[C@H](C(=O)N1CCC[C@H]1C(=O)Nc1ccc([C@H]2CC[C@H](c3ccc(NC(=O)[C@@H]4CCCN4C(=O)[C@@H](NC(=O)OC)C(C)(C)C)cc3)N2c2ccc(N3CCOCC3)cc2)cc1)C(C)(C)C | 1.6 nM | 11.2 nM | 0.211 nM | 1.24 nM | 8 | 9 |
| COC(=O)N[C@H](C(=O)N1CCC[C@H]1C(=O)Nc1ccc(CN(Cc2ccc(NC(=O)[C@@H]3CCCN3C(=O)[C@@H](NC(=O)OC)C(C)C)cc2)c2ccc(F)cc2)cc1)C(C)C |  |  | 0.4 nM | 38 nM |  |  |
| COC(=O)N[C@H](C(=O)N1CCC[C@H]1C(=O)Nc1ccc([C@@H]2CC[C@@H](c3ccc(NC(=O)[C@@H]4CCCN4C(=O)[C@@H](NC(=O)OC)C(C)C)cc3)N2)cc1)C(C)C |  |  | 282 nM | 253 nM |  |  |
| COC(=O)N[C@H](C(=O)N1CCC[C@H]1C(=O)Nc1ccc([C@@H]2CC[C@@H](c3ccc(NC(=O)[C@@H]4CCCN4C(=O)[C@@H](NC(=O)OC)c4ccccc4)cc3)N2c2ccc(F)cc2)cc1)c1ccccc1 (mixture of isomers) | 0.073 nM | 22.8 nM | 0.002 nM | 1.06 nM | 37 | 22 |
| COC(=O)N[C@H](C(=O)N1CCC[C@H]1C(=O)Nc1ccc([C@@H]2CC[C@@H](c3ccc(NC(=O)[C@@H]4CCCN4C(=O)[C@@H](NC(=O)OC)C(C)(C)O)cc3)N2c2ccc(F)cc2)cc1)C(C)(C)O (mixture of isomers) | 2.6 nM | 18 nM | 0.05 nM | 0.6 nM | 52 | 30 |

The next lines start with results.

| EC50 (Hepatitis C virus [1]) | EC50 (Hepatitis C virus [2]) | EC50 (Hepatitis C virus [3]) | EC50 (Hepatitis C virus [6]) | Compound | Ratio EC50 (Hepatitis C virus [4]) | Ratio EC50 (Hepatitis C virus [5]) |
| --- | --- | --- | --- | --- | --- | --- |
| 0.278 nM | 103 nM | 0.032 nM | 6.22 nM | COC(=O)N[C@H](C(=O)N1CCC[C@H]1C(=O)Nc1ccc([C@H]2CC[C@@H](c3ccc(NC(=O)[C@@H]4CCCN4C(=O)[C@@H](NC(=O)OC)C(C)(C)C)cc3)N2c2ccc(F)cc2)cc1)C(C)(C)C | 9 | 17 |
| 0.447 nM | 5.92 nM | 0.076 nM | 0.992 nM | COC(=O)N[C@H](C(=O)N1CCC[C@H]1C(=O)Nc1ccc([C@@H]2CC[C@@H](c3ccc(NC(=O)[C@@H]4CCCN4C(=O)[C@@H](NC(=O)OC)C(C)C)cc3)N2c2ccc(OC)cc2)cc1)C(C)C | 6 | 6 |
| 0.114 nM | 1.68 nM | 0.0087 nM | 0.164 nM | COC(=O)N[C@H](C(=O)N1CCC[C@H]1C(=O)Nc1ccc([C@H]2CC[C@H](c3ccc(NC(=O)[C@@H]4CCCN4C(=O)[C@@H](NC(=O)OC)C(C)C)cc3)N2c2ccc(C3CC3)cc2)cc1)C(C)C | 13 | 10 |
| 0.948 nM | 1.47 nM | 0.095 nM | 0.116 nM | COC(=O)N[C@H](C(=O)N1CCC[C@H]1C(=O)Nc1ccc([C@@H]2CC[C@@H](c3ccc(NC(=O)[C@@H]4CCCN4C(=O)[C@@H](NC(=O)OC)C(C)C)cc3)N2c2ccc(C(C)(C)CO)cc2)cc1)C(C)C | 10 | 13 |
| 0.597 nM | 2.57 nM | 0.069 nM | 0.143 nM | COC(=O)N[C@H](C(=O)N1CCC[C@H]1C(=O)Nc1ccc([C@@H]2CC[C@@H](c3ccc(NC(=O)[C@@H]4CCCN4C(=O)[C@@H](NC(=O)OC)C(C)C)cc3)N2c2ccc(-c3cccnc3)cc2)cc1)C(C)C | 9 | 18 |
| 0.3 nM | 81 nM | 0.09 nM | 22 nM | COC(=O)N[C@H](C(=O)N1CCC[C@H]1C(=O)Nc1ccc([C@H]2CC[C@@H](c3ccc(NC(=O)[C@@H]4CCCN4C(=O)[C@@H](NC(=O)OC)C(C)C)cc3)N2c2ccc(F)cc2)cc1)C(C)C | 3 | 4 |
| 0.171 nM | 9.79 nM | 0.03 nM | 1.31 nM | CC[C@H](C)[C@H](NC(=O)OC)C(=O)N1CCC[C@H]1C(=O)Nc1ccc([C@@H]2CC[C@@H](c3ccc(NC(=O)[C@@H]4CCCN4C(=O)[C@@H](NC(=O)OC)[C@@H](C)CC)cc3)N2c2ccc(F)cc2)cc1 (mixture of isomers) | 6 | 7 |
| 0.09 nM | 6.56 nM | 0.01 nM | 0.202 nM | CC[C@@H](C)[C@H](NC(=O)OC)C(=O)N1CCC[C@H]1C(=O)Nc1ccc([C@@H]2CC[C@@H](c3ccc(NC(=O)[C@@H]4CCCN4C(=O)[C@@H](NC(=O)OC)[C@H](C)CC)cc3)N2c2ccc(F)cc2)cc1 (mixture of isomers) | 9 | 32 |
| 0.204 nM | 4.36 nM | 0.04 nM | 0.72 nM | COC(=O)N[C@H](C(=O)N1CCC[C@H]1C(=O)Nc1ccc([C@@H]2CC[C@@H](c3ccc(NC(=O)[C@@H]4CCCN4C(=O)[C@@H](NC(=O)OC)C(C)C)cc3)N2c2ccc(C)cc2)cc1)C(C)C (mixture of isomers) | 5 | 6 |
| 0.3 nM | 4.07 nM | 0.03 nM | 0.37 nM | COC(=O)N[C@H](C(=O)N1CCC[C@H]1C(=O)Nc1ccc([C@@H]2CC[C@@H](c3ccc(NC(=O)[C@@H]4CCCN4C(=O)[C@@H](NC(=O)OC)C(C)C)cc3)N2c2ccc(Cl)cc2)cc1)C(C)C (mixture of isomers) | 10 | 11 |
| 0.089 nM | 4.46 nM | 0.0068 nM | 0.286 nM | COC(=O)N[C@H](C(=O)N1CCC[C@H]1C(=O)Nc1ccc([C@@H]2CC[C@@H](c3ccc(NC(=O)[C@@H]4CCCN4C(=O)[C@@H](NC(=O)OC)C(C)C)cc3)N2c2ccc(Br)cc2)cc1)C(C)C (mixture of isomers) | 13 | 16 |
| 59.5 nM | 242 nM | 6.54 nM | 23 nM | COC(=O)N[C@H](C(=O)N1CCC[C@H]1C(=O)Nc1ccc([C@@H]2CC[C@@H](c3ccc(NC(=O)[C@@H]4CCCN4C(=O)[C@@H](NC(=O)OC)C(C)C)cc3)N2c2ccc(O)cc2)cc1)C(C)C (mixture of isomers) | 9 | 11 |
| 0.086 nM | 0.706 nM | 0.0079 nM | 0.033 nM | COC(=O)N[C@H](C(=O)N1CCC[C@H]1C(=O)Nc1ccc([C@@H]2CC[C@@H](c3ccc(NC(=O)[C@@H]4CCCN4C(=O)[C@@H](NC(=O)OC)C(C)C)cc3)N2c2ccc(C(C)C)cc2)cc1)C(C)C (mixture of isomers) | 11 | 21 |
| 0.256 nM | 1.69 nM | 0.011 nM | 0.89 nM | COC(=O)N[C@H](C(=O)N1CCC[C@H]1C(=O)Nc1ccc([C@@H]2CC[C@@H](c3ccc(NC(=O)[C@@H]4CCCN4C(=O)[C@@H](NC(=O)OC)C(C)C)cc3)N2c2ccc(-c3ccccc3)cc2)cc1)C(C)C (mixture of isomers) | 23 | 19 |
